Tests used:
Escherichia coli [1] = assay: Antimicrobial activity against Escherichia coli 3190Y after 18 hrs by twofold agar dilution method; format: functional
Escherichia coli [2] = assay: Antimicrobial activity against Escherichia coli 851E after 18 hrs by twofold agar dilution method; format: functional
Micrococcus luteus = assay: Antimicrobial activity against Micrococcus luteus ATCC 9341 after 18 hrs by twofold agar dilution method; format: functional; details: ATCC 9341, 18 h
Salmonella typhimurium [3] = assay: Antimicrobial activity against Salmonella Typhimurium ATCC 14028 after 18 hrs by two-fold agar dilution method; format: functional, Salmonella enterica subsp. enterica serovar Typhimurium; details: Salmonella enterica, ATCC 14028, 18 h
[4] = tested on: Staphylococcus epidermidis; assay: Antimicrobial activity against Staphylococcus epidermidis 887E after 18 hrs by twofold agar dilution method; format: functional
Moraxella catarrhalis [5] = assay: Antimicrobial activity against Moraxella catarrhalis C2431 after 18 hrs by twofold agar dilution method; format: functional; details: C2431, 18 h
Serratia marcescens [6] = assay: Antimicrobial activity against Serratia marcescens 1826E after 18 hrs by twofold agar dilution method; format: functional
Moraxella catarrhalis [7] = assay: Antimicrobial activity against Moraxella catarrhalis 25240 after 18 hrs by twofold agar dilution method; format: functional; details: Moraxella catarrhalis, 25240, 18 h
Staphylococcus aureus [8] = assay: Antimicrobial activity against Staphylococcus aureus ATCC 25923 after 18 hrs by twofold agar dilution method; format: functional; details: ATCC 25923, 18 h, read-out: MIC
Enterobacter cloacae [9] = assay: Antimicrobial activity against Enterobacter cloacae P99 after 18 hrs by twofold agar dilution method; format: functional; details: P99, 18 h
Klebsiella aerogenes = assay: Antimicrobial activity against Klebsiella aerogenes harboring beta-lactamase SHV-1 1976E mutant after 18 hrs by twofold agar dilution method; format: functional
Staphylococcus aureus [10] = assay: Antimicrobial activity against Staphylococcus aureus ATCC 6538P after 18 hrs by twofold agar dilution method; format: functional
Staphylococcus aureus [11] = assay: Antimicrobial activity against Staphylococcus aureus giorgio after 18 hrs by twofold agar dilution method; format: functional
Bacillus subtilis = assay: Antimicrobial activity against Bacillus subtilis ATCC 6633 after 18 hrs by twofold agar dilution method; format: functional; details: ATCC 6633, 18 h
Klebsiella pneumoniae = assay: Antimicrobial activity against Klebsiella pneumoniae 2011E after 18 hrs by twofold agar dilution method; format: functional
Serratia marcescens [12] = assay: Antimicrobial activity against Serratia marcescens ATCC 27117 after 18 hrs by twofold agar dilution method; format: functional; details: ATCC 27117, 18 h
Salmonella typhimurium [13] = assay: Antimicrobial activity against Salmonella typhimurium ATCC 13311 after 18 hrs by twofold agar dilution method; format: functional, Salmonella enterica subsp. enterica serovar Typhimurium; details: Salmonella enterica, ATCC 13311, 18 h
Citrobacter freundii = assay: Antimicrobial activity against Citrobacter freundii 8090 after 18 hrs by twofold agar dilution method; format: functional; details: Citrobacter freundii, 8090, 18 h
[14] = tested on: Acinetobacter calcoaceticus; assay: Antimicrobial activity against Acinetobacter calcoaceticus ATCC 15473 after 18 hrs by twofold agar dilution method; format: functional; details: ATCC 15473, 18 h
Enterococcus faecalis = assay: Antimicrobial activity against Enterococcus faecalis ATCC 29212 after 18 hrs by twofold agar dilution method; format: functional; details: ATCC 29212, 18 h
Escherichia coli [15] = assay: Antimicrobial activity against Escherichia coli ATCC 25922 after 18 hrs by twofold agar dilution method; format: functional; details: ATCC 25922, 18 h
Proteus vulgaris = assay: Antimicrobial activity against Proteus vulgaris 6059 after 18 hrs by twofold agar dilution method; format: functional; details: Proteus vulgaris, 6059, 18 h
Bacillus licheniformis = assay: Antimicrobial activity against Bacillus licheniformis EMR after 18 hrs by twofold agar dilution method; format: functional; details: read-out: MIC
Enterobacter cloacae [16] = assay: Antimicrobial activity against Enterobacter cloacae ATCC 27508 after 18 hrs by twofold agar dilution method; format: functional; details: ATCC 27508, 18 h
Morganella morganii = assay: Antimicrobial activity against Morganella morganii 1375E after 18 hrs by twofold agar dilution method; format: functional
Staphylococcus aureus [17] = assay: Antimicrobial activity against Staphylococcus aureus 241 after 18 hrs by twofold agar dilution method; format: functional; details: Staphylococcus aureus, 241, 18 h
Bacillus cereus = assay: Antimicrobial activity against Bacillus cereus ATCC 27348 after 18 hrs by twofold agar dilution method; format: functional; details: ATCC 27348, 18 h
Staphylococcus aureus [18] = assay: Antimicrobial activity against Staphylococcus aureus 77 after 18 hrs by twofold agar dilution method; format: functional; details: Staphylococcus aureus, 77, 18 h
Escherichia coli [19] = assay: Antimicrobial activity against Escherichia coli ATCC 10536 after 18 hrs by twofold agar dilution method; format: functional; details: ATCC 10536, 18 h
Citrobacter koseri = assay: Antimicrobial activity against Citrobacter diversus 2046 after 18 hrs by twofold agar dilution method; format: functional; details: Citrobacter koseri, 2046, 18 h
Pseudomonas aeruginosa = assay: Antimicrobial activity against Pseudomonas aeruginosa 6065Y after 18 hrs by twofold agar dilution method; format: functional

SMILES	MIC (Escherichia coli [2])	MIC (Salmonella typhimurium [3])	MIC (Serratia marcescens [6])	MIC (Staphylococcus aureus [8])	MIC (Enterobacter cloacae [9])	MIC (Klebsiella aerogenes)	MIC (Staphylococcus aureus [10])	MIC (Staphylococcus aureus [11])	MIC (Bacillus subtilis)	MIC (Klebsiella pneumoniae)	MIC (Serratia marcescens [12])	MIC (Salmonella typhimurium [13])	MIC (Citrobacter freundii)	MIC [14]	MIC (Proteus vulgaris)	MIC (Bacillus licheniformis)	MIC (Enterobacter cloacae [16])	MIC (Morganella morganii)	MIC (Citrobacter koseri)	MIC (Pseudomonas aeruginosa)	other results
C[C@H](CO)[C@H]1CC[C@H]2[C@@H]3CC[C@@H]4C[C@H](NCCCNCCCCNCCCN)CC[C@]4(C)[C@H]3CC[C@]12C.Cl.Cl.Cl.Cl	> 32 µg/mL	> 32 µg/mL	> 32 µg/mL	32 µg/mL	> 32 µg/mL	> 32 µg/mL	8 µg/mL	32 µg/mL	8 µg/mL	> 32 µg/mL	> 32 µg/mL	> 32 µg/mL	> 32 µg/mL	> 32 µg/mL	> 32 µg/mL	< 32 µg/mL	> 32 µg/mL	> 32 µg/mL	> 32 µg/mL	> 32 µg/mL	MIC (Escherichia coli [1]): > 32 µg/mL; MIC (Micrococcus luteus; read-out: MIC): 8 µg/mL; MIC ([4]; read-out: MIC): 16 µg/mL; MIC (Moraxella catarrhalis [5]; read-out: MIC): < 32 µg/mL; MIC (Moraxella catarrhalis [7]; read-out: MIC): < 32 µg/mL; MIC (Enterococcus faecalis): > 32 µg/mL; MIC (Escherichia coli [15]): > 32 µg/mL; MIC (Staphylococcus aureus [17]; read-out: MIC): 8 µg/mL; MIC (Bacillus cereus): > 32 µg/mL; MIC (Staphylococcus aureus [18]; read-out: MIC): 8 µg/mL; MIC (Escherichia coli [19]): > 32 µg/mL
C[C@H](CO)[C@H]1CC[C@H]2[C@@H]3CC[C@@H]4C[C@H](NCCCNCCCCN)CC[C@]4(C)[C@H]3CC[C@]12C.Cl.Cl.Cl	> 32 µg/mL	> 32 µg/mL	> 32 µg/mL	32 µg/mL	> 32 µg/mL	> 32 µg/mL	32 µg/mL	32 µg/mL	32 µg/mL	> 32 µg/mL	> 32 µg/mL	> 32 µg/mL	> 32 µg/mL	> 32 µg/mL	> 32 µg/mL	< 32 µg/mL	> 32 µg/mL	> 32 µg/mL	> 32 µg/mL	> 32 µg/mL	MIC (Escherichia coli [1]; read-out: MIC): < 32 µg/mL; MIC (Micrococcus luteus): > 32 µg/mL; MIC [4]: > 32 µg/mL; MIC (Moraxella catarrhalis [5]): > 32 µg/mL; MIC (Moraxella catarrhalis [7]): > 32 µg/mL; MIC (Enterococcus faecalis): > 32 µg/mL; MIC (Escherichia coli [15]): > 32 µg/mL; MIC (Staphylococcus aureus [17]): > 32 µg/mL; MIC (Bacillus cereus): > 32 µg/mL; MIC (Staphylococcus aureus [18]; read-out: MIC): 32 µg/mL; MIC (Escherichia coli [19]; read-out: MIC): < 32 µg/mL
C[C@H](CO)[C@H]1CC[C@H]2[C@@H]3CC[C@@H]4C[C@@H](NCCCNCCCCN)CC[C@]4(C)[C@H]3CC[C@]12C.Cl.Cl.Cl	> 32 µg/mL	> 32 µg/mL	> 32 µg/mL	16 µg/mL	> 32 µg/mL	> 32 µg/mL	8 µg/mL	16 µg/mL	8 µg/mL	> 32 µg/mL	> 32 µg/mL	> 32 µg/mL	> 32 µg/mL	> 32 µg/mL	> 32 µg/mL	32 µg/mL	> 32 µg/mL	> 32 µg/mL	> 32 µg/mL	> 32 µg/mL	MIC (Escherichia coli [1]): > 32 µg/mL; MIC (Micrococcus luteus; read-out: MIC): 8 µg/mL; MIC ([4]; read-out: MIC): 32 µg/mL; MIC (Moraxella catarrhalis [5]): > 32 µg/mL; MIC (Moraxella catarrhalis [7]): > 32 µg/mL; MIC (Enterococcus faecalis; read-out: MIC): < 32 µg/mL; MIC (Escherichia coli [15]; read-out: MIC): < 32 µg/mL; MIC (Staphylococcus aureus [17]; read-out: MIC): 8 µg/mL; MIC (Bacillus cereus; read-out: MIC): 32 µg/mL; MIC (Staphylococcus aureus [18]): > 32 µg/mL; MIC (Escherichia coli [19]): > 32 µg/mL
